Experimental data from publication PMC6237173, “Synthesis of novel 6,7-dimethoxy-4-anilinoquinolines as potent c-Met inhibitors” (Journal of Enzyme Inhibition and Medicinal Chemistry, 2018).

Assays:
c-Met kinase = biological target: T1, c-Met kinase (Homo sapiens, UniProt P08581); assay: c-Met inhibition assay (Caliper motility shift assay); assay type: biochemical
T1 construct: purchased Carna
Description: A Caliper motility shift assay was applied to test the potency of synthesised compounds against c-Met kinase. Briefly, the compounds were dissolved in DMSO (Sigma) at 0.5 mM concentration, and then were diluted 50× to the final desired highest inhibitor concentration (10 μM) in reaction by DMSO. For all compounds, 100 μL of the diluted compound solution in tubes was transferred to a well on a 96-well plate (Corning) and was serially diluted 10× by transferring 10 μL dilution to 90 μL DMSO in the next well. 100 μL DMSO was added to two empty wells in the same 96-well plate for no compound control and no enzyme control. The plate was marked as source plate. 10 μL of compound solution from source plate was transferred to a new 96-well plate as the intermediate plate. […] After that, 5 μL solution from each well of the intermediate plate was transferred to a 384-well plate (Corning) as the assay plate in duplicates.c-Met kinase (Carna) was added in 1× kinase base buffer to prepare 2.5× enzyme solution, and FAM-labled peptide (GL Biochem) and ATP (Sigma) were added in 1× kinase base buffer to prepare 2.5× peptide solution. 10 μL of 2.5× enzyme solution was added to each well of the 384-well assay plate that already contained 5 μL of compound in 10% DMSO, and then incubated at room temperature for 10 min. […] The data were collected on Caliper and the conversion data were copied from Caliper program.
IC50 values were calculated from three independent experiments by fitting the data in XLfit with the following equation: Y = Bottom + (Top-Bottom)/(1 + (IC50/X)^HillSlope).

[1] = system: A549 (human lung cancer) cell line; assay: Cell proliferation assay (MTT), A549; assay type: cell-based; details: 48 h exposure, n = 3 (mean ± SD), read-out: Proliferative inhibition IC50, A549
Description: (§1) The anti-proliferative activities of the prepared compounds (12a-12s) were evaluated against A549, MCF-7 and MKN-45 cell lines by MTT assay in vitro. Briefly, tumour cells were cultured to log phase in RPMI 1640 medium supplemented with 10% foetal bovine serum (FBS). After diluting to 2 × 10^4 cells mL^−1 with the complete medium, 100 µL of the obtained cell suspension was added to each well of 96-well culture plates. Subsequently, incubation was performed at 37 °C in 5% CO2 for 24 h before the anti-proliferative assessment. Tested samples at pre-set concentrations were added to 6 wells with cabozantinib as a positive reference. After 48 h exposure period, 40 µL of PBS containing 2.5 mg mL^−1 of MTT was added to each well. Four hours later, 100 µL extraction solution (10% SDS-5% isobutyl alcohol-0.010M HCl) was added. After an overnight incubation at 37°C, the absorbance was measured at a wavelength of 570 nm with an ELISA microplate reader. All compounds were tested three times in each tumour cell lines. The IC50 values were the averages of three determinations and calculated by concentration-response curve fitting method.
(§2) All the synthesised compounds […] were evaluated for their antiproliferation activities against A549 (human lung cancer), MCF-7 (human breast cancer) and MKN-45 (human gastric cancer) cell lines by MTT assay, using cabozantinib as the positive control.

[2] = system: MCF-7 (human breast cancer) cell line; assay: Cell proliferation assay (MTT), MCF-7; assay type: cell-based; details: MCF7, 48 h exposure, n = 3 (mean ± SD), read-out: Proliferative inhibition IC50, MCF-7
Description: as §1, §2

[3] = system: MKN-45 (human gastric cancer) cell line; assay: Cell proliferation assay (MTT), MKN-45; assay type: cell-based; details: 48 h exposure, n = 3 (mean ± SD), read-out: Proliferative inhibition IC50, MKN-45
Description: as §1, §2

T1 sequence (P08581 25-1390): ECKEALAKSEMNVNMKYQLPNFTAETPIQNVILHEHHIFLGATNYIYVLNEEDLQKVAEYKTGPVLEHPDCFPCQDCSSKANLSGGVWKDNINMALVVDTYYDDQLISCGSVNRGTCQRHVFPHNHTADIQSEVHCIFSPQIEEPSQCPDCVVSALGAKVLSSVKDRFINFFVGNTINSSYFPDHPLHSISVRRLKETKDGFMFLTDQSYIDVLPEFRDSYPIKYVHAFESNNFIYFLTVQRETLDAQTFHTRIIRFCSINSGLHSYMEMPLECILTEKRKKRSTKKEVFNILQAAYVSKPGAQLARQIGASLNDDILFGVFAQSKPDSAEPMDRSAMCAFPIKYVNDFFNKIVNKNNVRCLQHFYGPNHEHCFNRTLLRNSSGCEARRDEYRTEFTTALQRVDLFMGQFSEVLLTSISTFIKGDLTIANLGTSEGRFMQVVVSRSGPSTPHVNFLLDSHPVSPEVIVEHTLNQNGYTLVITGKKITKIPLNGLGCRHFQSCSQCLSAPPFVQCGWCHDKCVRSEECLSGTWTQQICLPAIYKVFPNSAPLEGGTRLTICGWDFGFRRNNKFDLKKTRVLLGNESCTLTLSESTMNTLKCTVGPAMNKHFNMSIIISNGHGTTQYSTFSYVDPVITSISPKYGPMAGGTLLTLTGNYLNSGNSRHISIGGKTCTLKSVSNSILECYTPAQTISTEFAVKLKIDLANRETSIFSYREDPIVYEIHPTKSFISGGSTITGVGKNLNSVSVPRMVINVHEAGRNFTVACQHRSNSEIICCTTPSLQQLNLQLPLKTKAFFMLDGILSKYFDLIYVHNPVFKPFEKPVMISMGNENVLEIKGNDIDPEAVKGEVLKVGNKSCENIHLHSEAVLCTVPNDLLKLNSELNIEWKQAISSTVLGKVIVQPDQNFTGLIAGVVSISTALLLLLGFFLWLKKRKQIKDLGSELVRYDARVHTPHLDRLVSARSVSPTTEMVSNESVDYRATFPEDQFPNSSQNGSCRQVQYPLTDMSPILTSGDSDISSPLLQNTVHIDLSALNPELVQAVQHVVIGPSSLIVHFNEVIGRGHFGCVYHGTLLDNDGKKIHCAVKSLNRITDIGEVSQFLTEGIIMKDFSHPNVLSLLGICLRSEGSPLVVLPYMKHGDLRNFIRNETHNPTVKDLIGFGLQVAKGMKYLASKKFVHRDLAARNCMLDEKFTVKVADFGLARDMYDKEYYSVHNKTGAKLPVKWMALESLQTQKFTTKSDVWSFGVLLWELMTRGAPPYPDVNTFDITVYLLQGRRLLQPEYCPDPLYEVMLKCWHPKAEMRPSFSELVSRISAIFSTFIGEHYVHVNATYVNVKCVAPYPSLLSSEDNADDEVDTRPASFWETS

COc1cc2nccc(Nc3ccc4nc(-c5cc(F)ccc5Br)[nH]c4c3)c2cc1OC [Compound 12s, N-(2–(2-bromo-5-fluorophenyl)-1H-benzo[d]imidazol-6-yl)-6,7-dimethoxyquinolin-4-amine]
c-Met inhibition % Inhibition (10 μΜ) (c-Met kinase; 10 μΜ compound, n = 3 (mean ± SD)): 23.0 ± 1.1% | c-Met inhibitory activity in words (c-Met kinase; SAR statement, ortho-substituted compounds): loss of activity | IC50 [1]: > 100 µM | IC50 [2]: 92.7 ± 5.3 µM | IC50 [3]: > 100 µM | melting point: 284 to 286 °C
